The text below walks through data of patent publication US4443438A (priority 1978, dated 1984).

Like-named read-outs stand apart in the source and are kept apart here.

One data set has as its system harmful organisms. Conditions: reported in Published Unexamined Japanese Patent Application No. 125145/1977; cited from earlier work.
For data set [1], the system named is pesticide-resistant green rice leafhopper (Nephotettix cincticeps). Briefly: whole plant or invertebrate. Conditions: for mortality at 0.0125 % / mortality at 0.0225 %: Nephotettix cincticeps, 24 h, read-out: Mortality (%) after 24 hours. It is filed as in vivo. On the procedure:
The dilute solution was sprayed on rice plants in a 180-ml plastic cup at a rate of 15 cc/3 cups by means of a turn table. After air-drying, the treated rice plants were placed in a 5-liter beaker which was then covered with gauze. About 15 female adults of pesticide-resistant green rice leafhopper (Nephotettix cincticeps) were released in the beaker. After 3 hours, the knock-down ratio was examined, and after 24 hours the mortality was examined.

The nature of data set [2]: Fish toxicity to carps, TLm48 (Experimental example 6). It is filed as in vivo. The conditions noted are these: carp, in vivo, read-out: TLm48 (ppm). How it is done:
(§1) Ten liters of the dilute solution was placed in a 10-liter glass vessel and 10 carps were liberated therein. After 48 hours, the dead and alive were examined to calculate TLm48 (ppm).

Data set [3] has as its system pesticide-resistant green rice leafhopper (Nephotettix cincticeps). Nature of the data set: Mortality of pesticide-resistant green rice leafhopper on dusted rice plants (Experimental example 3). It is filed as in vivo. Conditions: 2 kg/10 are. On the procedure: The dusts (36), (37), (39), (43), (47) or (48) prepared in Preparation example 2 were each applied by means of a Bell jar duster to rice plants in a 1/10,000 are Wagner's pot at a rate of 2 kg/10 are. The treated pot was placed in a cylinder (diameter 20 cm, height 60 cm) which was then covered with gauze. About 30 female adults of pesticide-resistant green rice leafhopper (Nephotettix cincticeps) were liberated therein. After 24 hours, the mortality was examined.

The test system of the next data set is carps. Briefly: Fish toxicity to carps, TLm48 (Experimental example 6). It is filed as in vivo. Conditions: as 0.3% dust; 48 hours. On the procedure:
as §1

Data set [4] concerns green rice leafhoppers (Nephotettix cincticeps). Briefly: Density index of green rice leafhopper adults in paddy field, sweeping method (Experimental example 1). The data set is classed as in vivo. The conditions noted are these: 3 kg/10 are, untreated = 100.
The next data set in a line: in vivo. The conditions noted are these: mouse, po.
In data set [5] the test system is rice stem borer (Chilo suppressalis). Nature of the data set: Mortality of rice stem borer on dusted rice plants (Experimental example 4). The data set is classed as in vivo. Conditions: 3 kg/10 are, five days after application, 7200 min. The text has this: About 50 eggs just before hatch of rice stem borer (Chilo suppressalis) were put on rice plants at the tiller stage cultivated in a 1/5,000 are Wagner's pot. After 5 days, the dust (1) prepared in Preparation example 2 was applied thereto at a rate of 3 kg/10are by means of a Bell jar duster. Five days after application, the rice stem was dissected to observe the dead and alive of rice stem borers.

Where [6] appears, read: 25% wettable powder, diluted 2,000 times.
The mark [7] stands for this setting: as 20% wettable powder, diluted 25,000 times.

For `CC1(C)C(C=C(Cl)Cl)C1C(=O)OC(C#N)c1cccc(Oc2ccc(Br)cc2)c1` (stereo not drawn) [compound of the formula (I), m-(p-bromophenoxy)-α-cyanolbenzyl trans- or trans-rich-2,2-dimethyl-3-(2,2-dichlorovinyl)cyclopropanecarboxylate], in the data set with harmful organisms, the “insecticidal and acaricidal activity” value is “has insecticidal and acaricidal activity”.

Broadly, the mortality is the percentage killed. Turning to `CNC(=O)Oc1cccc2ccccc12` [NAC, 1-Naphthyl N-methylcarbamate], in data set [1], the mortality at 0.0125 % was 10%.

On to `CC(C)OP(=O)(OC(C)C)SCc1ccccc1` [IBP, O,O-Diisopropyl S-benzylphosphorothioate], for which the mortality at 0.0225 % in data set [1] was 0%. Moreover, in data set [1] (in vivo), the “Knock-down ratio (%) after 3 hours” value was found to be 0%. In addition, the LC50 at 48 h in data set [2] (as 0.3% dust) is greater than 5 µg/mL.

Regarding `CCCOP(=O)(OCCC)Oc1ccc(SC)cc1` [Kayaphos, O,O-Di-n-propyl p-methylthiophenylphosphate], in data set [3] (as 2% dust), the “Mortality (%) after 24 hours” value is reported as 43%.

Consider “m-Isopropylphenoxy N-methylcarbamate [MIPC]”, for which the “TLm48 (ppm)” value in the data set on carps is on record as greater than 5 ppm.

One may read the LD50 as the dose expected to kill half of the subjects tested. Higher therefore signals lower toxicity. With `CC1(C)C(C=C(Cl)Cl)C1C(=O)OC(C#N)c1cccc(Oc2ccc(Br)cc2)c1` (racemic) [m-(p-bromophenoxy)-α-cyanolbenzyl trans- or trans-rich-2,2-dimethyl-3-(2,2-dichlorovinyl)cyclopropanecarboxylate], in data set [4] (as 0.1% dust), the “Density index After 2 days” value was 5 and the “Density index After 15 days” value is listed as 25. In data set [3] (as 0.05% dust), the “Mortality (%) after 24 hours” value came out at 85%. In “in vivo”, this molecule showed an LD50 at 24 h greater than 2000 mg/kg.

In the case of `CCOP(=S)(OCC)Oc1cc(C)nc(C(C)C)n1` [Diazinon, O,O-Diethyl O-(2-isopropyl-4-methyl-6-pyrimidinyl)phosphorothioate], in data set [4] (as 5% dust), the “Density index After 2 days” value was 20 and the “Density index After 15 days” value is listed as 35. For the same molecule, in data set [2] (as 0.3% dust), the LC50 at 48 h was greater than 5 µg/mL.

With `CC1(C)[C@H](C=C(Cl)Cl)[C@H]1C(=O)OC(C#N)c1cccc(Oc2ccc(Br)cc2)c1` (relative stereo) [Compound of the formula (I) [dl(acid moiety)-trans isomer], m-(p-bromophenoxy)-α-cyanolbenzyl trans- or trans-rich-2,2-dimethyl-3-(2,2-dichlorovinyl)cyclopropanecarboxylate], in data set [4] (as 0.1% dust), the “Density index After 2 days” value came to 3 and the “Density index After 15 days” value is 18. Further, in data set [5] (as 0.1% dust), the “Mortality (%)” value was found to be 20%. In addition, the LC50 at 48 h in data set [2] (as 0.1% dust) is greater than 5 µg/mL. In “in vivo”, this molecule displayed an LD50 at 24 h greater than 2000 mg/kg.

`CNC(=O)Oc1ccc(C)c(C)c1` [MPMC, 3,4-Xylyl N-methylcarbamate]: in data set [4] (as 3% dust), the “Density index After 2 days” value is 7 and the “Density index After 15 days” value was determined as 60. Besides, the “Knock-down ratio (%) after 3 hours” value in data set [1] (setting [6]) is 10%. Further, the mortality at 0.0125 % in data set [1] amounted to 10%.

In the case of `CCC(C)c1ccccc1OC(=O)NC` (centres unmarked) [BPMC, 2-sec-Butylphenyl N-methylcarbamate], in data set [1] (setting [6]), the “Knock-down ratio (%) after 3 hours” value worked out at 3% and the mortality at 0.0125 % stood at 3%.

Turning to `COP(=S)(OC)Oc1ccc([N+](=O)[O-])c(C)c1` [Sumithion, O,O-Dimethyl O-(3-methyl-4-nitrophenyl)phosphorothioate], in data set [4] (as 5% dust), the “Density index After 2 days” value amounted to 60 and the “Density index After 15 days” value was 95. For the same molecule, in data set [1], the mortality at 0.0225 % amounted to 15%. In addition, the “Knock-down ratio (%) after 3 hours” value in data set [1] (in vivo) was found to be 0%. Moreover, in data set [3] (as 2% dust), the “Mortality (%) after 24 hours” value turned out to be 10%. In addition, the “Mortality (%)” value in data set [5] (as 3% dust) was 70%. The LD50 at 24 h in the data set “in vivo” was greater than 1000 mg/kg.

As to `CC1(C)C(C=C(Cl)Cl)C1C(=O)OC(C#N)c1cccc(Oc2ccc(Br)cc2)c1` (racemic), in data set [1] (setting [7]), the “Knock-down ratio (%) after 3 hours” value stood at 50% and the “Mortality (%) after 24 hours” value was found to be 80%.

Take `CNC(=O)Oc1cccc(C)c1` [MTMC, m-Tolyl N-methylcarbamate]: in data set [3] (as 2% dust), the “Mortality (%) after 24 hours” value is on record as 30%.

On to `COP(=S)(OC)Oc1ccc(SC)c(C)c1` [Baycid, O,O-Dimethyl O-[3-methyl-4-(methylthio)phenyl]thiophosphate], for which the mortality at 0.0225 % in data set [1] worked out at 20%. For the same molecule, the “Knock-down ratio (%) after 3 hours” value in data set [1] (in vivo) turned out to be 0%.

For `CNC(=O)Oc1ccccc1OC(C)C` [PHC, 2-Isopropoxyphenyl N-methylcarbamate], the LC50 at 48 h in data set [2] (as 0.3% dust) is greater than 5 µg/mL.
